Reference: patent publication US20090131431A1, “Pyrazolo[3,4-b]pyridine compounds, and their use as a PDE4 inhibitors” (priority 2005, published 2009)
Where a name gives a salt, the structure may show the parent alone.

These compounds were tested against T1, PDE4B (human recombinant) (Homo sapiens, UniProt Q07343) (assay: Inhibition of PDE4B activity: SPA and/or Fluorescence Polarisation (FP) assay). Conditions: one reading (n=1) or average of 2 or more readings, read-out: PDE4B pIC50 (±about 0.5) (converted).
T1 construct: made in house
Format: biochemical
How it was run: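 Human recombinant PDE4B activity measured by SPA with [3H]cAMP at about 10 nM, 1 h at ambient temperature, enzyme set for ≤20% substrate hydrolysis, or by IMAP FP with Fl-cAMP at about 40 nM, 40 min at ambient temperature under linear conditions. Inhibition curves fitted; values reported as pIC50.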

T1 sequence (Q07343 1-564 isoform Q07343-2): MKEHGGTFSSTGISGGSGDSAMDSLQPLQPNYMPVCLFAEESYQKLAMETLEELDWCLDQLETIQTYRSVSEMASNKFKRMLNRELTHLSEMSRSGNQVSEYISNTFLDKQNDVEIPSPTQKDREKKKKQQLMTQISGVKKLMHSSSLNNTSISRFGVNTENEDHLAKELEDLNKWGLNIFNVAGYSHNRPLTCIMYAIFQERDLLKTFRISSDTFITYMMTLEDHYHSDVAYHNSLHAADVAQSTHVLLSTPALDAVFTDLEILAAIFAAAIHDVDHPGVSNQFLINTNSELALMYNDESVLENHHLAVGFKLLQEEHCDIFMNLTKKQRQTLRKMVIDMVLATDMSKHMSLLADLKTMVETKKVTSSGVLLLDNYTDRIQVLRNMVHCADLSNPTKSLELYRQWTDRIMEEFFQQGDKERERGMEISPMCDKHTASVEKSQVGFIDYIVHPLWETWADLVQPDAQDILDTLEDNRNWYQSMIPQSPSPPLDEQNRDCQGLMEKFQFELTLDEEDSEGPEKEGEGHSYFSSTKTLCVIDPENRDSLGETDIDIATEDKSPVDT

Question: How did the IC50 turn out when `CCn1ncc2c(NC3CCN(C(N)=O)CC3)c(CNC(=O)c3cccc(NC(C)=O)c3)c(C)nc21` [Example 264, 4-({5-[({[3-(acetylamino)phenyl]carbonyl}amino)methyl]-1-ethyl-6-methyl-1H-pyrazolo[3,4-b]pyridin-4-yl}amino)-1-piperidinecarboxamide] was run?
Answer: Its IC50 is 10 to 100 pM.

Question: How did the IC50 turn out when `CCn1ncc2c(NC3CCN(C(N)=O)CC3)c(CNC(=O)c3ccc(C)cc3O)c(C)nc21` [Example 265, 4-{[1-ethyl-5-({[(2-hydroxy-4-methylphenyl)carbonyl]amino}methyl)-6-methyl-1H-pyrazolo[3,4-b]pyridin-4-yl]amino}-1-piperidinecarboxamide] was run?
Answer: Its IC50 is 10 to 100 pM.

Question: Which IC50 does the source give for `CCn1ncc2c(NC3CCN(C(N)=O)CC3)c(CNC(=O)c3ccccc3F)c(C)nc21` [Example 266, 4-{[1-ethyl-5-({[(2-fluorophenyl)carbonyl]amino}methyl)-6-methyl-1H-pyrazolo[3,4-b]pyridin-4-yl]amino}-1-piperidinecarboxamide] here?
Answer: The IC50 was 126 to 1000 pM.

Question: With `CCn1ncc2c(NC3CCN(C(N)=O)CC3)c(CNC(=O)c3cccc(N4CCCC4=O)c3)c(C)nc21` [Example 267, 4-({1-ethyl-6-methyl-5-[({[3-(2-oxo-1-pyrrolidinyl)phenyl]carbonyl}amino)methyl]-1H-pyrazolo[3,4-b]pyridin-4-yl}amino)-1-piperidinecarboxamide] as the compound, how does the IC50 read?
Answer: The IC50 was 10 to 100 pM.

Question: `CCn1ncc2c(NC3CCN(C(N)=O)CC3)c(CNC(=O)c3ccc(C(=O)NC)cc3)c(C)nc21` [Example 268, N-[(4-{[1-(aminocarbonyl)-4-piperidinyl]amino}-1-ethyl-6-methyl-1H-pyrazolo[3,4-b]pyridin-5-yl)methyl]-N′-methyl-1,4-benzenedicarboxamide] was tested. Which IC50 did it give?
Answer: The IC50 was 10 to 100 pM.

Question: How did the IC50 turn out when `CCn1ncc2c(NC3CCN(C(N)=O)CC3)c(CNC(=O)c3ccc(N4CCCCC4)cc3)c(C)nc21` [Example 269, 4-({1-ethyl-6-methyl-5-[({[4-(1-piperidinyl)phenyl]carbonyl}amino)methyl]-1H-pyrazolo[3,4-b]pyridin-4-yl}amino)-1-piperidinecarboxamide] was run?
Answer: The IC50 was 10 to 100 pM.

Question: With `CCn1ncc2c(NC3CCN(C(N)=O)CC3)c(CNC(=O)c3cccc4c3OCC4)c(C)nc21` [Example 270, 4-[(5-{[(2,3-dihydro-1-benzofuran-7-ylcarbonyl)amino]methyl}-1-ethyl-6-methyl-1H-pyrazolo[3,4-b]pyridin-4-yl)amino]-1-piperidinecarboxamide] as the compound, how does the IC50 read?
Answer: The IC50 was 10 to 100 pM.

Question: Which IC50 does the source give for `CCn1ncc2c(NC3CCN(C(N)=O)CC3)c(CNC(=O)c3ccc4c(c3)CCC4)c(C)nc21` [Example 271, 4-[(5-{[(2,3-dihydro-1H-inden-5-ylcarbonyl)amino]methyl}-1-ethyl-6-methyl-1H-pyrazolo[3,4-b]pyridin-4-yl)amino]-1-piperidinecarboxamide] here?
Answer: The IC50 was 10 to 100 pM.

Question: How did the IC50 turn out when `CCn1ncc2c(NC3CCN(C(N)=O)CC3)c(CNC(=O)c3ccc(C(C)(C)C)cc3O)c(C)nc21` [Example 272, 4-({5-[({(4-(1,1-dimethylethyl)-2-hydroxyphenyl]carbonyl}amino)methyl}-1-ethyl-6-methyl-1H-pyrazolo[3,4-b]pyridin-4-yl)amino}-1-piperidinecarboxamide] was run?
Answer: The IC50 was 10 to 100 pM.

Question: How did the IC50 turn out when `CCn1ncc2c(NC3CCN(C(N)=O)CC3)c(CNC(=O)c3ccc(C4CCCC4)cc3)c(C)nc21` [Example 273, 4-{[5-({[(4-cyclopentylphenyl)carbonyl]amino}methyl)-1-ethyl-6-methyl-1H-pyrazolo[3,4-b]pyridin-4-yl]amino}-1-piperidinecarboxamide] was run?
Answer: Its IC50 is 10 to 100 pM.

Question: Which IC50 does the source give for `CCn1ncc2c(NC3CCN(C(N)=O)CC3)c(CNC(=O)c3ccc(C)c4c3OCC4)c(C)nc21` [Example 274, 4-{[1-ethyl-6-methyl-5-({[(4-methyl-2,3-dihydro-1-benzofuran-7-yl)carbonyl]amino}methyl)-1H-pyrazolo[3,4-b]pyridin-4-yl]amino}-1-piperidinecarboxamide] here?
Answer: The IC50 was 10 to 100 pM.

Question: How did the IC50 turn out when `CCn1ncc2c(NC3CCOCC3)c(CNC(=O)c3ccccc3O)c(C)nc21` [Example 275, N-{[1-ethyl-6-methyl-4-(tetrahydro-2H-pyran-4-ylamino)-1H-pyrazolo[3,4-b]pyridin-5-yl]methyl}-2-hydroxybenzamide] was run?
Answer: The IC50 was 10 to 100 pM.

Question: Which IC50 does the source give for `CCn1ncc2c(NC3CCOCC3)c(CNC(=O)c3ccc(NC(C)=O)cc3O)c(C)nc21` [Example 276, 4-(acetylamino)-N-{[1-ethyl-6-methyl-4-(tetrahydro-2H-pyran-4-ylamino)-1H-pyrazolo[3,4-b]pyridin-5-yl]methyl}-2-hydroxybenzamide] here?
Answer: The IC50 was 10 to 100 pM.

Question: How did the IC50 turn out when `CCn1ncc2c(NC3CCOCC3)c(CNC(=O)c3ccc(C(C)(C)C)cc3)c(C)nc21` [Example 277, 4-(1,1-dimethylethyl)-N-{[1-ethyl-6-methyl-4-(tetrahydro-2H-pyran-4-ylamino)-1H-pyrazolo[3,4-b]pyridin-5-yl]methyl}benzamide] was run?
Answer: The IC50 was 10 to 100 pM.

Question: For `CCn1ncc2c(NC3CCOCC3)c(CNC(=O)c3ccc(C(C)C)cc3)c(C)nc21` [Example 278, N-{[1-ethyl-6-methyl-4-(tetrahydro-2H-pyran-4-ylamino)-1H-pyrazolo[3,4-b]pyridin-5-yl]methyl}-4-(1-methylethyl)benzamide], which IC50 is on record?
Answer: Its IC50 is 10 to 100 pM.

Question: How did the IC50 turn out when `CCn1ncc2c(NC3CCOCC3)c(CNC(=O)c3ccc(C(N)=O)cc3)c(C)nc21` [Example 279, N-{[1-ethyl-6-methyl-4-(tetrahydro-2H-pyran-4-ylamino)-1H-pyrazolo[3,4-b]pyridin-5-yl]methyl}-1,4-benzenedicarboxamide] was run?
Answer: Its IC50 is 126 to 1000 pM.

Question: How did the IC50 turn out when `CCn1ncc2c(NC3CCOCC3)c(CNC(=O)c3cccc(NC(C)=O)c3)c(C)nc21` [Example 280, 3-(acetylamino)-N-{[1-ethyl-6-methyl-4-(tetrahydro-2H-pyran-4-ylamino)-1H-pyrazolo[3,4-b]pyridin-5-yl]methyl}benzamide] was run?
Answer: Its IC50 is 10 to 100 pM.

Question: `CCn1ncc2c(NC3CCOCC3)c(CNC(=O)c3ccc(C)cc3O)c(C)nc21` [Example 281, N-{[1-ethyl-6-methyl-4-(tetrahydro-2H-pyran-4-ylamino)-1H-pyrazolo[3,4-b]pyridin-5-yl]methyl}-2-hydroxy-4-methylbenzamide] was tested. Which IC50 did it give?
Answer: Its IC50 is 10 to 100 pM.

Question: With `CCn1ncc2c(NC3CCOCC3)c(CNC(=O)c3ccccc3F)c(C)nc21` [Example 282, N-{[1-ethyl-6-methyl-4-(tetrahydro-2H-pyran-4-ylamino)-1H-pyrazolo[3,4-b]pyridin-5-yl]methyl}-2-fluorobenzamide] as the compound, how does the IC50 read?
Answer: The IC50 was 126 to 1000 pM.

Question: Which IC50 does the source give for `CCn1ncc2c(NC3CCOCC3)c(CNC(=O)c3ccc(C(=O)NC)cc3)c(C)nc21` [Example 283, N-{[1-ethyl-6-methyl-4-(tetrahydro-2H-pyran-4-ylamino)-1H-pyrazolo[3,4-b]pyridin-5-yl]methyl}-N′-methyl-1,4-benzenedicarboxamide] here?
Answer: Its IC50 is 126 to 1000 pM.

Question: `CCn1ncc2c(NC3CCOCC3)c(CNC(=O)c3ccc4c(c3)CCC4)c(C)nc21` [Example 284, N-{[1-ethyl-6-methyl-4-(tetrahydro-2H-pyran-4-ylamino)-1H-pyrazolo[3,4-b]pyridin-5-yl]methyl}-2,3-dihydro-1H-indene-5-carboxamide] was tested. Which IC50 did it give?
Answer: The IC50 was 126 to 1000 pM.

Question: For `CCn1ncc2c(NC3CCOCC3)c(CNC(=O)c3ccc(C(C)(C)C)cc3O)c(C)nc21` [Example 285, 4-(1,1-dimethylethyl)-N-{[1-ethyl-6-methyl-4-(tetrahydro-2H-pyran-4-ylamino)-1H-pyrazolo[3,4-b]pyridin-5-yl]methyl}-2-hydroxybenzamide], which IC50 is on record?
Answer: Its IC50 is 10 to 100 pM.

Question: `CCn1ncc2c(NC3CCOCC3)c(CNC(=O)c3ccc4c(=O)[nH][nH]c4c3)c(C)nc21` [Example 286, N-{[1-ethyl-6-methyl-4-(tetrahydro-2H-pyran-4-ylamino)-1H-pyrazolo[3,4-b]pyridin-5-yl]methyl}-3-oxo-2,3-dihydro-1H-indazole-6-carboxamide] was tested. Which IC50 did it give?
Answer: Its IC50 is 126 to 1000 pM.

Question: For `CCn1ncc2c(NC3CCOCC3)c(CNC(=O)c3ccc4c(c3)CCCS4(=O)=O)c(C)nc21` [Example 287, N-{[1-ethyl-6-methyl-4-(tetrahydro-2H-pyran-4-ylamino)-1H-pyrazolo[3,4-b]pyridin-5-yl]methyl}-3,4-dihydro-2H-1-benzothiopyran-6-carboxamide 1,1-dioxide], which IC50 is on record?
Answer: The IC50 was 126 to 1000 pM.

Question: `CCn1ncc2c(NC3CCOCC3)c(CNC(=O)c3ccc(N4CCCC4=O)cc3)c(C)nc21` [Example 288, N-{[1-ethyl-6-methyl-4-(tetrahydro-2H-pyran-4-ylamino)-1H-pyrazolo[3,4-b]pyridin-5-yl]methyl}-4-(2-oxo-1-pyrrolidinyl)benzamide] was tested. Which IC50 did it give?
Answer: Its IC50 is 10 to 100 pM.

Question: How did the IC50 turn out when `CCc1nc2c(cnn2CC)c(NC2CCOCC2)c1CNC(=O)N1CCCC1` [Example 289, N-{[1,6-diethyl-4-(tetrahydro-2H-pyran-4-ylamino)-1H-pyrazolo[3,4-b]pyridin-5-yl]methyl}-1-pyrrolidinecarboxamide] was run?
Answer: The IC50 was 126 to 1000 pM.

Question: Which IC50 does the source give for `CCc1nc2c(cnn2CC)c(NC2CCOCC2)c1CNC(=O)N1CCCCC1` [Example 290, N-{[1,6-diethyl-4-(tetrahydro-2H-pyran-4-ylamino)-1H-pyrazolo[3,4-b]pyridin-5-yl]methyl}-1-piperidinecarboxamide] here?
Answer: Its IC50 is 126 to 1000 pM.

Question: How did the IC50 turn out when `CCn1ncc2c(NC3CCOCC3)c(CN3Cc4ccccc4C3=O)c(C)nc21` [Example 300, 2-{[1-ethyl-6-methyl-4-(tetrahydro-2H-pyran-4-ylamino)-1H-pyrazolo[3,4-b]pyridin-5-yl]methyl}-2,3-dihydro-1H-isoindol-1-one] was run?
Answer: The IC50 was 126 to 1000 pM.

Question: With `CCn1ncc2c(NC3CCOCC3)c(CN3Cc4occc4C3=O)c(C)nc21` [Example 301, 5-{[1-ethyl-6-methyl-4-(tetrahydro-2H-pyran-4-ylamino)-1H-pyrazolo[3,4-b]pyridin-5-yl]methyl}-5,6-dihydro-4H-furo[2,3-c]pyrrol-4-one] as the compound, how does the IC50 read?
Answer: Its IC50 is 126 to 1000 pM.

Question: For `CCc1nc2c(cnn2CC)c(NC2CCN(C(N)=O)CC2)c1CNC(=O)c1ccc(C(C)(C)C)cc1O` [Example 302, 4-({5-[({[4-(1,1-dimethylethyl)-2-hydroxyphenyl]carbonyl}amino)-methyl]-1,6-diethyl-1H-pyrazolo[3,4-b]pyridin-4-yl}amino)-1-piperidine-carboxamide Formate], which IC50 is on record?
Answer: The IC50 was 10 to 100 pM.
